Each structure is given as a SMILES string. The source made the active and inactive calls. The rule behind the calls is not given here.

For 15 molecules, inhibition, Activity and viability results are on record in ChEMBL document CHEMBL5523723, “G Protein-Coupled Estrogen Receptor-Mediated Anti-Inflammatory and Mucosal Healing Activity of a Trimethylpyridinol Analogue in Inflammatory Bowel Disease” (J Med Chem, 2024).

Assay [1] in a line: Inhibition of IL6 induced adhesion of TPA treated human U-937 cells to human HT-29 cells at 1 uM pretreated with HT-29 for 1 hr followed by U-937 addition along with IL6 stimulation for 3 hrs by fluorescence based microplate reader assay relative to control. In kind it is functional. Conditions: time 4 hrs.
For assay [2], the system named is U-937. The experiment in a line: Inhibition of TNFalpha induced adhesion of TPA treated human U-937 cells to human HT-29 cells at 1 uM pretreated with HT-29 for 1 hr followed by U-937 addition along with TNFalpha stimulation for 3 hrs by fluorescence based microplate reader assay relative to control. The assay is classed as functional. To be noted: time 4 hrs.
For assay [3], the system named is U-937. Put plainly: Induction of apoptosis in human U-937 cells assessed as late apoptotic cells at 10 uM incubated for 24 hrs by Annexin V FITC/PI staining based flow cytometry analysis ( Rvb = 4 +/- 0.2%). In kind it is functional. On the technique in general: In flow cytometry, cells or beads pass a laser one at a time.
Assay [4] deals with HT-29. Put plainly: Induction of apoptosis in human HT-29 cells assessed as necrotic cells at 1 uM incubated for 24 hrs by Annexin V FITC/PI staining based flow cytometry analysis ( Rvb = 0.2%). The assay is classed as functional.
The subject of assay [5] is U-937. Put plainly: Induction of apoptosis in human U-937 cells assessed as viable cells at 10 uM incubated for 24 hrs by Annexin V FITC/PI staining based flow cytometry analysis ( Rvb = 95.2 +/- 0.4%). The assay is classed as functional. To be noted: read-out: Activity.
Assay [6] has as its system U-937. The experiment in a line: Induction of apoptosis in human U-937 cells assessed as viable cells at 1 uM incubated for 24 hrs by Annexin V FITC/PI staining based flow cytometry analysis ( Rvb = 95.2 +/- 0.4%). In kind it is functional. To be noted: read-out: Activity.
Assay [7] deals with HT-29. Put plainly: Induction of apoptosis in human HT-29 cells assessed as viable cells at 5 uM incubated for 24 hrs by Annexin V FITC/PI staining based flow cytometry analysis ( Rvb = 99 +/- 0.1%). The assay is classed as functional. Conditions: read-out: Activity.
Assay [8] deals with U-937. The experiment in a line: Induction of apoptosis in human U-937 cells assessed as early apoptotic cells at 1 uM incubated for 24 hrs by Annexin V FITC/PI staining based flow cytometry analysis ( Rvb = 0.6 +/- 0.1 %). The assay is classed as functional.
In assay [9] the test system is HT-29. The experiment in a line: Induction of apoptosis in human HT-29 cells assessed as necrotic cells at 10 uM incubated for 24 hrs by Annexin V FITC/PI staining based flow cytometry analysis ( Rvb = 0.2%). In kind it is functional.
The subject of assay [10] is U-937. Put plainly: Induction of apoptosis in human U-937 cells assessed as late apoptotic cells at 1 uM incubated for 24 hrs by Annexin V FITC/PI staining based flow cytometry analysis ( Rvb = 4 +/- 0.2%). The assay is classed as functional.
Assay [11] deals with HT-29. Put plainly: Induction of apoptosis in human HT-29 cells assessed as viable cells at 1 uM incubated for 24 hrs by Annexin V FITC/PI staining based flow cytometry analysis ( Rvb = 99 +/- 0.1%). The assay is classed as functional. To be noted: read-out: Activity.
The test system of assay [12] is HT-29. Put plainly: Induction of apoptosis in human HT-29 cells assessed as early apoptotic cells at 10 uM incubated for 24 hrs by Annexin V FITC/PI staining based flow cytometry analysis ( Rvb = 0%). The assay is classed as functional.
Assay [13] concerns HT-29. The experiment in a line: Mucosal healing effect in TNFalpha induced human HT-29 cells assessed as decrease in epithelial permeability by measuring reduced […] FITC-dextran 4 level at 0.1 to 10 uM pretreated for 3 hrs followed by TNFalpha addition and subsequent FD4 addition and measured after 2 hrs by fluorescence based assay. The assay is classed as functional, cell-based. To be noted: dose 0.1-10 µM, time 5.0 hrs.

The test system of assay [14] is U-937. The experiment in a line: Induction of apoptosis in human U-937 cells assessed as necrotic cells at 10 uM incubated for 24 hrs by Annexin V FITC/PI staining based flow cytometry analysis( Rvb = 0.2 +/- 0.1%). The assay is classed as functional.
For assay [15], the system named is HT-29. The experiment in a line: Induction of apoptosis in human HT-29 cells assessed as early apoptotic cells at 5 uM incubated for 24 hrs by Annexin V FITC/PI staining based flow cytometry analysis ( Rvb = 0%). The assay is classed as functional.
Assay [16] deals with HT-29. Put plainly: Induction of apoptosis in human HT-29 cells assessed as late apoptotic cells at 5 uM incubated for 24 hrs by Annexin V FITC/PI staining based flow cytometry analysis ( Rvb = 0.7%). In kind it is functional.
Assay [17] relates to U-937. Put plainly: Induction of apoptosis in human U-937 cells assessed as necrotic cells at 1 uM incubated for 24 hrs by Annexin V FITC/PI staining based flow cytometry analysis ( Rvb = 0.2 +/- 0.1%). In kind it is functional.
Assay [18] concerns U-937. The experiment in a line: Induction of apoptosis in human U-937 cells assessed as necrotic cells at 5 uM incubated for 24 hrs by Annexin V FITC/PI staining based flow cytometry analysis ( Rvb = 0.2 +/- 0.1%). In kind it is functional.
In assay [19] the test system is U-937. Put plainly: Induction of apoptosis in human U-937 cells assessed as early apoptotic cells at 5 uM incubated for 24 hrs by Annexin V FITC/PI staining based flow cytometry analysis ( Rvb = 0.6 +/- 0.1 %). In kind it is functional.
Assay [20] concerns U-937. Put plainly: Induction of apoptosis in human U-937 cells assessed as early apoptotic cells at 10 uM incubated for 24 hrs by Annexin V FITC/PI staining based flow cytometry analysis ( Rvb = 0.6 +/- 0.1 %). The assay is classed as functional.
For assay [21], the system named is HT-29. Put plainly: Induction of apoptosis in human HT-29 cells assessed as early apoptotic cells at 1 uM incubated for 24 hrs by Annexin V FITC/PI staining based flow cytometry analysis ( Rvb = 0%). The assay is classed as functional.
Assay [22] deals with HT-29. The experiment in a line: Mucosal healing effect in TNFalpha induced human HT-29 cells assessed as decrease in epithelial permeability by measuring reduced […] FITC-dextran 4 level at 10 uM pretreated with compound and G15 for 3 hrs followed by TNFalpha addition and subsequent FD4 addition and measured after 2 hrs by fluorescence based assay. The assay is classed as functional, cell-based. To be noted: time 5.0 hrs.

The test system of assay [23] is HT-29. Put plainly: Induction of apoptosis in human HT-29 cells assessed as viable cells at 10 uM incubated for 24 hrs by Annexin V FITC/PI staining based flow cytometry analysis ( Rvb = 99 +/- 0.1%). Conditions: read-out: Activity. The assay is classed as functional.
For assay [24], the system named is HT-29. Put plainly: Induction of apoptosis in human HT-29 cells assessed as late apoptotic cells at 1 uM incubated for 24 hrs by Annexin V FITC/PI staining based flow cytometry analysis ( Rvb = 0.7%). The assay is classed as functional.
The subject of assay [25] is HT-29. The experiment in a line: Induction of apoptosis in human HT-29 cells assessed as late apoptotic cells at 10 uM incubated for 24 hrs by Annexin V FITC/PI staining based flow cytometry analysis ( Rvb = 0.7%). The assay is classed as functional.
In assay [26] the test system is U-937. Put plainly: Induction of apoptosis in human U-937 cells assessed as late apoptotic cells at 5 uM incubated for 24 hrs by Annexin V FITC/PI staining based flow cytometry analysis ( Rvb = 4 +/- 0.2%). The assay is classed as functional.
Assay [27] has as its system U-937. Put plainly: Induction of apoptosis in human U-937 cells assessed as viable cells at 5 uM incubated for 24 hrs by Annexin V FITC/PI staining based flow cytometry analysis ( Rvb = 95.2 +/- 0.4%). The assay is classed as functional. Conditions: read-out: Activity.
For assay [28], the system named is HT-29. Put plainly: Induction of apoptosis in human HT-29 cells assessed as necrotic cells at 5 uM incubated for 24 hrs by Annexin V FITC/PI staining based flow cytometry analysis ( Rvb = 0.2%). The assay is classed as functional.

Take `COc1ccc(C(=O)Nc2nc(C)c(O)c(C)c2C)c(OC)c1`: the figures for the inhibition at 1 µM in assay [1] and in [2] were 19.1% and 30.9%, respectively.
For `Cc1nc(NC(=O)c2ccc(F)cc2F)c(C)c(C)c1O`, in that order: 62.4% and 71.4%.
For `Cc1nc(NC(=O)c2ccc(-c3cc(Cl)ccc3Cl)o2)c(C)c(C)c1O`, in that order: 69.6% and 78.2%.
For `Cc1nc(NC(=O)c2c(C)noc2C)c(C)c(C)c1O`, in that order: 74% and 85%.
Turning to `Cc1nc(NC(=O)c2sc3cc(Cl)ccc3c2Cl)c(C)c(C)c1O`, the inhibition at 1 µM in assay [1] was determined as 9%.
Turning to `Cc1nc(NC(=O)c2c(-c3ccccc3)noc2C)c(C)c(C)c1O`, the inhibition at 1 µM in assay [1] was 37.8%; in [2] it was 18.8%.
With `COc1ccc(C(=O)Nc2nc(C)c(O)c(C)c2C)cc1`, the inhibition at 1 µM in [1] is 6.5%.
On the same count and under the same terms, the same measure for `Cc1nc(NC(=O)c2ccc(C(C)(C)C)cc2)c(C)c(C)c1O`: 29.4%; for `Cc1nc(NC(=O)c2ccccc2)c(C)c(C)c1O`: 44.1%.
In the case of `Brc1cc2c(cc1[C@@H]1Nc3ccccc3[C@@H]3C=CC[C@@H]31)OCO2`, the Activity worked out at 27.9% in assay [3]; 1.6% in assay [4]; 6.8% in [8]; 0.7% in assay [9]; 13.1% in assay [10]; 2.4% in assay [12]. In addition, the Activity in assay [14] amounted to 0.3%; in assay [15] it was 1%; in assay [16], 13.1%; in assay [17] it was 0.5%; in assay [18] it was 0.7%; in assay [19] it was 6.5%. The Activity in [20] amounted to 6.2%; in [21], 1.6%; in assay [24] it was 10.4%; in assay [25], 17.1%; in assay [26] it was 18.3%; in [28], 1.6%. In addition, the viability at 10 µM came out at 65.7% in assay [5] and 79.7% in [23]. Also, the viability at 1 µM in [6] was 79.6%; in [11], 86.4%. Also, the viability at 5 µM in assay [7] stood at 84.2%; in assay [27] it was 74.6%. Further, the outcome in assay [13] and in assay [22] was inactive.
`Cc1nc(NC(=O)c2cc3ccccc3s2)c(C)c(C)c1O`: the inhibition at 1 µM in [1] is 27%.
Still for that read-out and setting: the same measure for `Cc1nc(NC(=O)c2ccc(F)cc2)c(C)c(C)c1O`: 5.5%.
For the molecule `Cc1ccc(C(=O)Nc2nc(C)c(O)c(C)c2C)o1`, the inhibition at 1 µM was 70.2% in assay [1] and 79.9% in assay [2].
For `Cc1nc(NC(=O)c2ccccc2Cl)c(C)c(C)c1O`, in that order: 15% and 7.9%.
For `Cc1ccc2c(Cl)c(C(=O)Nc3nc(C)c(O)c(C)c3C)sc2c1`, the inhibition at 1 µM in assay [1] was 8.7%.

By inhibition is commonly meant the percentage by which the read-out fell short of the control.
